In patent publication US20160287712A1, “FATTY ACID NIACIN CONJUGATES” (priority 2013, published 2016):
Like-named read-outs stand apart in the source and are kept apart here.

How the values were obtained:
[1] = Pharmacokinetics after oral administration to rats with jugular vein and portal vein catheters; format: in vivo, Male Sprague-Dawley rats; conditions: rat
Method: Pharmacokinetic studies were conducted in male Sprague-Dawley rats, with an approximate weight of 250-300 g at dose initiation. All animals were instrumented with a jugular vein catheter (JVC) and a portal vein catheter (PVC) to facilitate blood collections. Jugular and Portal vein catheterizations were conducted at Charles River Laboratories under protocols approved by the Institutional Animal Care and Use Committee (IACUC) of Charles River Lab (Approved PO 4122010).
Animals were anaesthetized with ketamine and xylazine administered intraperitoneally and provided buprenorphine subcutaneously. The skin overlying the scapula and over the right jugular vein were shaved and skin aseptically prepared. A 1.1.5 cm cranial-caudal incision, followed by blunt dissection was performed to expose the jugular vein, which was then catheterized using either a PU or blended catheter. After fixation of the catheter, it was flushed with sterile saline to verify patency. The distal end of the catheter was then tunneled subcutaneously to the dorsal scapular region where it was exteriorized. Catheter patency was verified again. The catheter was then locked with 50% heparinized dextrose solution. The exteriorized end of the catheter was sealed with a stainless steel plug. The skin incision was then closed with wound clips.
Animals were anaesthetized with ketamine and xylazine administered intraperitoneally. A mid-line incision 1-2 cm was made in the abdominal cavity and the portal vein was detached near the liver. To prevent bleeding, the portal vein was ligated temporarily as the catheter was inserted. The cathether (3.5 Fr polyurethane tube, Access™ technologies Inc.) was inserted immediately and fixed by a purse-string suture on the portal vein. The time to reperfusion was about 1 min after intercepted blood flow. This method for insertion of catheter can avoid the occlusion of the vessel. In addition, a catheter with trumpet-shaped opening was used to prevent the catheter from slipping out of the vessel with minimizing the effect of blood flow. Another end of the catheter was passed subcutaneously to the dorsal back of the neck and the laparotomy was closed in two layers, with a 4/0 silk blade to the muscle, and a surgical clip to close the skin.
Male Sprague-Dawley rats instrumented with jugular vein catheter and portal vein catheter were separated into groups of 4. The test compound was administered by oral gavage at dose of 30 mg/kg in a vehicle consisting of Tween (specifically Tween 80), Peceol, PEG400 (at a ratio of 40:50:10) along with 0.2% tocopherol and emulsified in water, with a water to oil ratio of 66:1 (the dose concentration was 6 mg/mL and the dose volume was 5 mL/kg). Whole blood (0.3 mL) was collected at both the jugular and portal vein at the following time points: 10, 20, 40 min, 1, 1.5, 2 and 4 hours post-dose. Blood samples were placed into tubes containing sodium heparin anticoagulant. Each whole blood sample was placed on ice until sample could be centrifuged at 2200×g at 5° C.±3° C. for 10 min to isolate plasma.
The amount of the various metabolites and parent compound present in the plasma samples were then analyzed by LC/MS/MS using an Agilent 6410 Triple Quadrupole with an ESI interface. The column used was a Phenomenex Gemini C6 Phenyl 110A 50×4.6 mm, 1.8 μM. The mobile phase used was water and methanol, each containing 0.1% formic acid. Data was further analyzed by WinNolin Software. For a given test compound, the following compounds were quantitated from the collected plasma samples: 1) test compound, 2) niacin linker, 3) linker-EPA, 4) niacin and 5) nicotinuric acid.
In order to quantitate each of these compounds in plasma, standard curves in blank plasma were generated using the appropriate internal standard (the final concentration range used were 8333 ng/mL, 2083 ng/mL, 521 ng/mL, 130.2 ng/mL, 32.5 ng/mL, 8.1 ng/mL, 2.0 ng/mL and 0.5 ng/mL). […]

[2] = Compound hydrolysis and tissue distribution: test compound and metabolites in liver after oral dosing for 3.5 days; format: in vivo, Male Sprague-Dawley rats; conditions: for concentration at 4 h / Amount of Analyte: Niacin-linker Metabolite / Amount of Analyte: Nicotinuric Acid / Amount of Analyte: Linker-Fatty Acid Metabolite: male, Sprague-Dawley; for concentration at 4 h: liver homogenate, rat liver, 100 mg/kg oral gavage every 12 hours, 7 doses, 4 hours after last dose, read-out: Amount of Analyte: Intact Test Compound; for Amount of Analyte: Niacin-linker Metabolite / Amount of Analyte: Nicotinuric Acid / Amount of Analyte: Linker-Fatty Acid Metabolite: 4 h
Method: The amount of test compound and its metabolites in the liver provides information on distribution of such compounds within the rat, as well as information on stability of the test compound, such as resistance of the test compound to hydrolytic degradation. […] A test compound was administered to a single group of Male Sprague-Dawley rats. Each group contained 6 animals. […] Two additional animals were administered vehicle alone as controls. Animals were dosed every 12 hours for 3.5 days (7 doses total). Rats were fasted overnight after the PM dose on day 3 of study. On day 4 the rats were euthanized 4 hours after the last dose. Vehicle treated rats were also fasted prior to collection of tissue samples on day 4. At 4 hours after last dose, the livers were excised, rinsed and weight of each tissue recorded. Livers were snap frozen in liquid nitrogen and stored in 50 mL polypropylene conical centrifuge tubes at −80° C. Liver tissue was homogenized in PBS at a volume of 2 mL per gram of tissue. The amount of test compound and various metabolites of the test compound present in the liver homogenates were analyzed by LC/MS/MS as done in the previous example. […] In order to quantitate each of these compounds in the homogenates, standard curves in blank liver homogenates were generated using the appropriate internal standard.

[3] = male, Sprague-Dawley, in vivo, po, 30 mg/kg
[4] = male, Sprague-Dawley, in vivo, po, 30 mg/kg, Peripheral AUClast, parent compound
[5] = male, Sprague-Dawley, in vivo, po, 30 mg/kg, Peripheral Cmax, parent compound
[6] = male, Sprague-Dawley, in vivo, po, 30 mg/kg, Portal AUClast, parent compound
[7] = male, Sprague-Dawley, in vivo, po, 30 mg/kg, Portal Cmax, parent compound

Structure (SMILES) | ratio of Portal AUClast of Parent compound to Portal AUClast of Niacin-linker metabolite [1, 3] | AUC(0-t) [1, 4] [ng·h/mL] | Cmax [1, 5] [ng/mL] | AUC(0-t) [1, 6] [ng·h/mL] | Cmax [1, 7] [ng/mL] | Amount of Analyte: Niacin-linker Metabolite ([2]; rat, in vivo, po, 100 mg/kg) | other results
CC/C=C\C/C=C\C/C=C\C/C=C\C/C=C\C/C=C\CCC(=O)NCCNC(=O)c1cccnc1 [Compound I-7, N-(2-(4Z,7Z,10Z,13Z,16Z,19Z)-docosa-4,7,10,13,16,19-hexaenamidoethyl)nicotinamide, reference compound] |  |  |  |  |  |  | Cmax ([1]; male, Sprague-Dawley, jugular vein plasma, po, 30 mg/kg, 30 mg/kg oral gavage, jugular vein plasma, read-out: Peripheral Cmax, parent compound): 238 ng/mL; AUC(0-t) ([1]; male, Sprague-Dawley, jugular vein plasma, po, 30 mg/kg, 30 mg/kg oral gavage, jugular vein plasma, t=10 min to 4 hrs, read-out: Peripheral AUClast, parent compound): 353 ng·h/mL; Cmax ([1]; male, Sprague-Dawley, portal vein plasma, po, 30 mg/kg, 30 mg/kg oral gavage, portal vein plasma, read-out: Portal Cmax, parent compound): 1850 ng/mL; AUC(0-t) ([1]; male, Sprague-Dawley, portal vein plasma, po, 30 mg/kg, 30 mg/kg oral gavage, portal vein plasma, t=10 min to 4 hrs, read-out: Portal AUClast, parent compound): 1460 ng·h/mL; portal concentration of the parent compound compared to compounds I-15 and I-24 ([1]; 30 mg/kg oral gavage): lower; concentration at 4 h [2]: 6.7 ng/g
CC/C=C\C/C=C\C/C=C\C/C=C\C/C=C\CCCC(=O)NCCNC(=O)c1cccnc1 [Compound I-8, N-(2-(5Z,8Z,11Z,14Z,17Z)-eicosa-5,8,11,14,17-pentaenamidoethyl)nicotinamide, reference compound] | 0.06 | 81 | 78 | 662 | 756 | 2351 nanograms of analyte per gram of tissue homogenate | Amount of Analyte: Nicotinuric Acid ([2]; rat, in vivo, po, 100 mg/kg): 785 nanograms of analyte per gram of tissue homogenate
CC/C=C\C/C=C\C/C=C\C/C=C\C/C=C\CCCC(=O)N1CCN(C(=O)c2cccnc2)CC1 [Compound I-13, (5Z,8Z,11Z,14Z,17Z)-1-(4-nicotinoylpiperazin-1-yl)icosa-5,8,11,14,17-pentaen-1-one] | 0.83 | 142 | 80 | 3560 | 6070 | 2023 nanograms of analyte per gram of tissue homogenate | Amount of Analyte: Linker-Fatty Acid Metabolite ([2]; rat, in vivo, po, 100 mg/kg): 15782 nanograms of analyte per gram of tissue homogenate; Amount of Analyte: Nicotinuric Acid ([2]; rat, in vivo, po, 100 mg/kg): 15.1 nanograms of analyte per gram of tissue homogenate
CC/C=C\C/C=C\C/C=C\C/C=C\C/C=C\CCCC(=O)N(C)CCNC(=O)c1cccnc1 [Compound I-15, N-(2-((5Z,8Z,11Z,14Z,17Z)—N-methylicosa-5,8,11,14,17-pentaenamido)ethyl)nicotinamide] |  | 767 | 360 | 5060 | 4520 |  | concentration at 4 h [2]: 459 ng/g
CC/C=C\C/C=C\C/C=C\C/C=C\C/C=C\CCCC(=O)N[C@H]1CCN(C(=O)c2cccnc2)C1 [Compound I-23, (5Z,8Z,11Z,14Z,17Z)—N—((S)-1-nicotinoylpyrrolidin-3-yl)icosa-5,8,11,14,17-pentaenamide] | 0.17 | 60 | 68 | 1440 | 2600 | 2290 nanograms of analyte per gram of tissue homogenate | 
CC/C=C\C/C=C\C/C=C\C/C=C\C/C=C\CCCC(=O)N1CC[C@H](NC(=O)c2cccnc2)C1 [Compound I-24, N—((S)-1-((5Z,8Z,11Z,14Z,17Z)-icosa-5,8,11,14,17-pentaenoyl)pyrrolidin-3-yl)nicotinamide] | 41 | 964 | 565 | 6640 | 5320 | 2826 nanograms of analyte per gram of tissue homogenate | Amount of Analyte: Linker-Fatty Acid Metabolite ([2]; rat, in vivo, po, 100 mg/kg): 77.2 nanograms of analyte per gram of tissue homogenate; amount of intact test compound present in the liver compared to other compounds of Table 9 ([2]; rat, in vivo, po, 100 mg/kg): significantly larger
CC/C=C\C/C=C\C/C=C\C/C=C\C/C=C\CCCC(=O)N[C@H]1CC[C@H](CNC(=O)c2cccnc2)CC1 [Compound I-41, N-(((1R,4R)-4-((5Z,8Z,11Z,14Z,17Z)-icosa-5,8,11,14,17-pentaenamido)cyclohexyl)methyl)nicotinamide] |  |  |  |  |  |  | Peripheral AUClast, parent compound ([1]; in vivo, po, 30 mg/kg): 218 ng·h/mL; Portal AUClast, parent compound ([1]; in vivo, po, 30 mg/kg): 2,507 hr*ng/mL; ratio of Portal AUClast of Parent compound to Portal AUClast of Niacin-linker metabolite ([1]; in vivo, po, 30 mg/kg): 1.3
